Among the test systems are SNB-75 CNS; SK-MEL-5 melanoma; TK-10 renal; HCC-2998 colon; SNB-19 CNS; NCI-H522 lung; MALME-3M melanoma; K-562 leukemia; ACHN renal; MCF7 breast.
What all share (experiment): NCI anticancer screen, dose series, 48 h

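Results reflect a 48-hour exposure of cells in 96-well plates to compound at five concentrations. Here, GI50 denotes the concentration required for 50% inhibition of growth. At the TGI there is no net growth.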 Some results are limits rather than exact numbers.

Consider `COc1cc2c(c(OC)c1)C(=O)C(=O)C(CC1(C)OCCCO1)=C2`, for which the TGI in the test on SNB-75 CNS is 33.9 µM; in the test on SK-MEL-5 melanoma, 18.1 µM; with TK-10 renal, 17.2 µM; in the test on HCC-2998 colon, 30.1 µM; in the test on SNB-19 CNS it was > 53.2 µM; with NCI-H522 lung it was 2.7 µM. In addition, the results for the TGI in the test on MALME-3M melanoma, with K-562 leukemia and in the test on ACHN renal were 20.4 µM, 6.7 µM and 17.9 µM, respectively.

For the molecule `CC(C)(Cl)C(Cl)CC/C(CBr)=C(\Cl)CBr` (stereo unspecified), the TGI amounted to 4.85 µM in the test on SNB-75 CNS; 3.74 µM in the test on SK-MEL-5 melanoma; 3.82 µM in the test on TK-10 renal; 6.97 µM in the test on MCF7 breast; 21.6 µM with HCC-2998 colon; 29.2 µM with SNB-19 CNS. Further, the figures for the TGI in the test on NCI-H522 lung, in the test on MALME-3M melanoma and in the test on ACHN renal were 3.09 µM, 4.83 µM and 13.9 µM, respectively.

As for `CCCCCCC(O)C(=O)OC1C2C(CC1(C)C)C(O)C13OC1C(O)C1(CO1)[C@@]23C` (stereo partly specified), the TGI with SNB-75 CNS was 31.2 µM; in the test with SK-MEL-5 melanoma, 40.9 µM; with TK-10 renal, > 100 µM; in the test with MCF7 breast, > 100 µM; with SNB-19 CNS, > 100 µM; in the test on NCI-H522 lung, > 100 µM. Also, the TGI in the test with MALME-3M melanoma and with K-562 leukemia was > 100 µM in each case.

Consider `CCOC(=O)C1=C(C)C2C3C(=O)OC(=O)C3C1(C)C1C(=O)OC(=O)C21` (stereo unspecified), for which the TGI with SNB-75 CNS, with SK-MEL-5 melanoma, in the test with TK-10 renal, in the test on HCC-2998 colon, with SNB-19 CNS and with MALME-3M melanoma was > 100 µM throughout. For the same molecule, the TGI in the test with K-562 leukemia and in the test with ACHN renal was > 100 µM in each case.

For `NC1C2C=CC(C2)C1C(=O)O` (stereo unspecified), the TGI in the test on SNB-75 CNS, with SK-MEL-5 melanoma, in the test with TK-10 renal, in the test on MCF7 breast, in the test on SNB-19 CNS and in the test on NCI-H522 lung was > 100 µM in each case. Further, the TGI in the test with MALME-3M melanoma, with K-562 leukemia and in the test on ACHN renal was > 100 µM in each case.

For `O=C(O)c1ccccc1/C=N\N(CCO)C1=NCCN1`, the TGI in the test on SNB-75 CNS, with SK-MEL-5 melanoma, in the test on TK-10 renal, in the test with MCF7 breast, with HCC-2998 colon and in the test on SNB-19 CNS was > 100 µM each time. Moreover, the TGI in the test on MALME-3M melanoma, with K-562 leukemia and in the test with ACHN renal was > 100 µM each time.

Take `Clc1ccc2c(c1)CC1C[N+]3=C(CCCCC3)C1=C2` (stereo unspecified): the TGI was 4.56 µM with SNB-75 CNS; > 100 µM in the test on SK-MEL-5 melanoma; > 100 µM in the test on TK-10 renal; > 100 µM in the test with MCF7 breast; > 100 µM with SNB-19 CNS; > 100 µM with NCI-H522 lung. In addition, the TGI in the test on MALME-3M melanoma, with K-562 leukemia and in the test with ACHN renal was > 100 µM each time.

`COc1ccccc1NC(=O)C(=O)C(c1cnc2ccc([N+](=O)[O-])cc2n1)[N+](=O)[O-]` (stereo unspecified): the TGI in the test on SNB-75 CNS, with SK-MEL-5 melanoma, with TK-10 renal, in the test on HCC-2998 colon, in the test on SNB-19 CNS and with NCI-H522 lung was > 100 µM each time. Also, the TGI in the test with MALME-3M melanoma, in the test with K-562 leukemia and with ACHN renal was > 100 µM throughout.

Turning to `O=C(O)C1Cc2[nH]c3ccccc3c2C2CCCC12` (stereo unspecified), the TGI with SNB-75 CNS, with SK-MEL-5 melanoma, with TK-10 renal, in the test with HCC-2998 colon, with SNB-19 CNS and in the test on NCI-H522 lung was > 100 µM in each case. The TGI in the test on MALME-3M melanoma, with K-562 leukemia and in the test with ACHN renal was > 100 µM throughout.

As for `CCCc1cn2c(/C=N/N=C(N)N)c(-c3ccc([N+](=O)[O-])cc3)nc2s1`, the TGI with SK-MEL-5 melanoma was found to be 54 µM; with TK-10 renal, 3.93 µM; in the test with HCC-2998 colon, 2.03 µM; with SNB-19 CNS it was 2.9 µM; in the test on MALME-3M melanoma, 3.86 µM; in the test on ACHN renal, 2.88 µM.

In the case of `COc1cc(Cn2c3ccccc3c3cc(C)cc(OC)c32)cc2c1[nH]c1ccccc12`, the TGI in the test with SK-MEL-5 melanoma was > 25 µM; in the test with TK-10 renal, > 25 µM; in the test on HCC-2998 colon it was > 25 µM; with SNB-19 CNS, > 25 µM; with NCI-H522 lung, 21 µM; in the test with MALME-3M melanoma, > 25 µM. Besides, the TGI in the test on K-562 leukemia and in the test on ACHN renal was > 25 µM each time. In addition, the GI50 in the test with NCI-H522 lung was 5.43 µM; in the test with K-562 leukemia it was 9.7 µM; in the test on ACHN renal, 12.2 µM.

`CC(C)(C)C1CCC2c3c([nH]c4ccccc34)C3C(=O)N(c4cc(Cl)ccc4Cl)C(=O)C3C2C1` (stereo unspecified): the TGI with SK-MEL-5 melanoma, in the test with TK-10 renal, with MCF7 breast, with HCC-2998 colon, in the test with SNB-19 CNS and in the test on MALME-3M melanoma was > 100 µM throughout. Further, the TGI in the test on K-562 leukemia and in the test with ACHN renal was > 100 µM in each case.

Regarding `N#CCCN(c1ccc(C=Nc2ccc(C(=O)O)cc2)cc1)S(=O)(=O)c1ccccc1`, the TGI in the test on SNB-75 CNS, with SK-MEL-5 melanoma, in the test with TK-10 renal, in the test with HCC-2998 colon, with SNB-19 CNS and in the test on NCI-H522 lung was > 100 µM throughout. For the same molecule, the TGI in the test with MALME-3M melanoma, with K-562 leukemia and in the test with ACHN renal was > 100 µM throughout.

Take `CC(NNC(=S)N1CCCC1)c1cccnn1` (stereo unspecified): the TGI in the test on SNB-75 CNS was > 28.7 µM; in the test with SK-MEL-5 melanoma, 5.39 µM; with TK-10 renal it was > 31.5 µM; in the test on MCF7 breast, 5.33 µM; in the test with HCC-2998 colon, > 100 µM; in the test with SNB-19 CNS, > 100 µM. Moreover, the TGI was > 100 µM in the test with MALME-3M melanoma, > 100 µM in the test on K-562 leukemia and 4.68 µM in the test on ACHN renal.

Take `Cc1cc(N(CCC#N)CCC#N)ccc1/C=C(\N=[N+]=[N-])C(=O)NC(=O)COc1ccccc1`: the TGI is > 67.2 µM in the test with SNB-75 CNS; > 100 µM with SK-MEL-5 melanoma; > 100 µM in the test on TK-10 renal; > 100 µM with HCC-2998 colon; > 100 µM in the test with SNB-19 CNS; > 100 µM in the test on NCI-H522 lung. Also, the TGI with MALME-3M melanoma, in the test on K-562 leukemia and in the test on ACHN renal was > 100 µM in each case.

The values above are taken from PubChem BioAssay (NCI).
